A short description of data set [1]: Ultraviolet absorption spectrum (spectrophotometer, quartz cell, optical path 10 mm). Type of data set: physicochemical. The method, then:
The measurement was carried out by using a spectrophotometer (UV-200S, made by SHIMADZU CORPORATION) as an ethanol solution of the sample having a suitable concentration with a quartz cell having an optical path of 10 mm. Also, the wavelength at the maximum absorption and the molar extinction coefficient were found from the results of the measurement as the ultraviolet absorptive properties. The results are shown below. • Wavelength at the maximum absorption: 332 nm Molar extinction coefficient: 44,000
The measurement was carried out by using a spectrophotometer (UV-200S, made by SHIMADZU CORPORATION), as a dimethylformamide solution of the sample having a suitable concentration and with a quartz cell having an optical path of 10 mm.
The measurement was carried out by using a spectrophotometer (UV-200S, made by SHIMADZU CORPORATION), as a dimethylformamide solution of the sample having a suitable concentration, with a quartz cell having an optical path of 10 mm.

Data set [2] deals with skin of a quinea pig. The data set is described as follows: Percutaneous absorption, Franz diffusion cell. Type of data set: in vitro ADME. To be noted: 1 % aqueous solution, 33°C, 20 hours. As to the method: The skin of a quinea pig was peeled, washed with physiological saline and then set in a percutaneous absorption apparatus which was made in accordance with the description in Franz, T. J, J. Invest, Dermatol, 64, 190, 1975, by using a diffusion cell. The sample room was filled with 0.5 mi of a 1 % aqueous solution of the polystyrene derivative, and the acceptor was filled with physiological saline. After maintaining at 33°C for 20 hours while stirring with a magnetic stirrer, the physiological saline in the acceptor was taken out, and the ultraviolet absorbency was measured. In the same manner as above, ultraviolet absorbency was measured, using water alone as a negative control substance and a 1 % aqueous solution of p-aminobenzoic acid as a positive control substance. […] To the contrary, the spectrum of the positive control substance was shown the corresponding to an amount of 87.0 ppm of the compound.
The skin of a quinea pig was peeled, washed with physiological saline and then set in a percutaneous absorption apparatus which was made in accordance with the description in Franz, T. J, J. Invest, Dermatol, 64, 190, 1975, by using a diffusion cell. […] After maintaining at 33°C for 20 hours while stirring with a magnetic stirrer, the physiological saline in the acceptor was taken out, and the ultraviolet absorbency was measured. […]

The test system of data set [3] is guinea pigs. The data set is described as follows: Sunscreen effect against ultraviolet irradiation of the skin. It counts as in vivo. To be noted: sunscreen ointment or lotion containing the derivative, about 2 mg per 1 cm^2, ultraviolet rays 10 minutes, judged after 24 hours with the naked eyes; control area turned red. As to the method: Hair of. the notal of three guinea pigs was cut, and the drug (ointment) was applied in an amount of about 2 mg per 1 cm^2. Then, ultraviolet rays were irradiated for 10 minutes by a fluorescent light (FL-20SE, made by TOSHIBA CORPORATION) from a height of 10 cm from the notal.. On the other hand, as a control area, a base prepared without mixing the sunscreening agent was applied, and treatments were carried out in the same manner as.above. The judgement was conducted after 24 hours with the naked eyes.
Hair of the notal of three guinea pigs was cut, and the drug (ointment) was applied in an amount of about 2 mg per 1 cm^2.. Then, ultraviolet rays were irradiated for 10 minutes by a fluorescent light (FL-20SE, made by TOSHIBA CORPORATION) from a height of 10 cm from the notal. On the other hand, as a control area, a base prepared without mixing the sunscreening agent was applied, and treatments were carried out in the same manner as above. The judgement was conducted after 24 hours with the naked eyes.

A short description of data set [4]: Transmittance of ultraviolet rays through a coated polyethylene sheet. Type of data set: physicochemical. To be noted: wavelength of 330 nm. As to the method:
There was dissolved 2.8 g of p-vinylbenzaldehyde 4-carboxymethyl-2-methylthiosemicarbazone in 1.5 g of triethanolamine and 23.7 g of water. The solution was applied onto a polyethylene sheet having a thickness of 0.5 mm (which was prepared in the same manner as the preparation process for the'control pieces in Example 11) in an amount of 2.0 mg/cm^2, and dried at room temperature to give a ultraviolet absorbent sheet.
The obtained ultraviolet absorbent sheet and untreated polyethylene sheet were cut into pieces having a size of 1 cm X 4 cm, respectively. The untreated polyethylene sheet was used as control piece, and transmittance of ultraviolet rays at a wavelength of 330 nm was measured by using a spectrophotometer. As the result, the transmittance of ultraviolet rays of the ultraviolet absorbent sheet was not more than 0.1 %. Accordingly, it was confirmed that not less than 99.9 % of ultraviolet rays were absorbed under the above condition.

Setting [5] is: ethanol solution, at the maximum absorption.
Setting [6] is: N,N-dimethylformamide solution, at the maximum absorption.
The mark [7] stands for this setting: commercially available sunscreening agent, at the first (shorter) maximum.
Where [8] appears, read: commercially available sunscreening agent, at the second (longer) maximum.
[9] abbreviates: commercially available sunscreening agent, first (shorter) maximum.
The mark [10] stands for this setting: commercially available sunscreening agent, second (longer) maximum.
The mark [11] stands for this setting: commercially available sunscreening agent, solvent not stated.

“And” between values parts separate entries of the source, which are not always exact repeats. Equal values may be shown once.

For `C=Cc1ccc(C=NN(CCCC(=O)O)C(=S)NC)cc1` [Example 5, p-vinylbenzaldehyde 2-(y-carboxypropyl)-4-methylthiosemicarbazone], in data set [1] (ethanol solution), the “Wavelength at the maximum absorption” value amounted to 332 nm. The Molar extinction coefficient in data set [1] (setting [5]) is 38,000.

Regarding `C=Cc1ccc(C=NN(C)C(=S)Nc2ccccc2)cc1` [Example 12, p-vinylbenzaldehyde 2-methyl-4-phenylthiosemicarbazone], in data set [1] (N,N-dimethylformamide solution), the “Wavelength at the maximum absorption” value came to 338 nm. Further, the Molar extinction coefficient in data set [1] (setting [6]) was 40,000.

For `C=Cc1ccc(C=NN(C)C(=S)N(C)C)cc1` [Example 8, p-vinylbenzaldehyde 2,4,4-trimethylthiosemicarbazone], in data set [1] (ethanol solution), the “Wavelength at the maximum absorption” value amounted to 331 nm. Besides, the Molar extinction coefficient in data set [1] (setting [5]) is reported as 29,000.

In the case of `COc1ccc(C(=O)c2ccccc2)c(O)c1` [2-hydroxy-4-methoxybenzophenone, reference compound], the values for the molar extinction coefficients in data set [1] (setting [7]) and in data set [1] (setting [8]) were 13,000 and 8,200, respectively. The figures for the “wavelengths at the maximum absorption” value in data set [1] (setting [9]) and in data set [1] (setting [10]) were 287 nm and 326 nm, respectively.

As to `Nc1ccc(C(=O)O)cc1` [p-aminobenzoic acid], the “amount of the compound in the acceptor corresponding to the spectrum” value in data set [2] is 87.0 ppm and 93.0 ppm.

In the case of `C=Cc1ccc(C=NN(C)C(=O)NCC(=O)OCC)cc1` [Example 3, p-vinylbenzaldehyde 4-ethoxy carbonylmethyl-2-methylsemicarbazone], the “Wavelength at the maximum absorption” value in data set [1] (ethanol solution) came to 311 nm. Besides, the Molar extinction coefficient in data set [1] (setting [5]) was 33,000. Further, the “sunscreen effect (color of the applied area compared with an area not irradiated)” value in data set [3] is “the color in the area on which the sunscreen lotion was applied was not changed”.

With `C=Cc1ccc(C=NN(CCO)C(=S)NC)cc1` [Example 9, p-vinylbenzaldehyde 2-(β-hydroxyethyl)-4-methylthiosemicarbazone], the “Wavelength at the maximum absorption” value in data set [1] (ethanol solution) is recorded as 322 nm. Further, the Molar extinction coefficient in data set [1] (setting [5]) is listed as 40,000.

As for `C=Cc1ccc(C=NN(CC(=O)OCC)C(=S)N(C)C)cc1` [Example 6, p-vinylbenzaldehyde 2-ethoxycarbonylmethyl-4,4-dimethylthiosemicarbazone], the “Wavelength at the maximum absorption” value in data set [1] (ethanol solution) turned out to be 381 nm. The Molar extinction coefficient in data set [1] (setting [5]) is 34,000.

Consider `C=Cc1ccc(C=NN(C)C(=S)NC)cc1` [Example 7, vinylbenzaldehyde 2,4-dimethylthiosemicarbazone], for which the “Wavelength at the maximum absorption” value in data set [1] (ethanol solution) was 315 nm. The Molar extinction coefficient in data set [1] (setting [5]) is 34,000.

On to `Cc1ccc(O)c(-n2nc3ccccc3n2)c1` [2-(2'-hydroxy-5'-methylphenylbenzotriazole), reference compound], for which the molar extinction coefficients in data set [1] (setting [7]) is given as 12,000; in data set [1] (setting [8]) it was 13,000. For the same molecule, the “wavelengths at the maximum absorption” value came to 297 nm in data set [1] (setting [9]) and 337 nm in data set [1] (setting [10]).

Regarding `C=Cc1ccc(C=NN(C)C(=S)NCC(=O)OC)cc1` [Example 1, p-vinylbenzaldehyde 4-methoxycarbonylmethyl-2-methylthiosemicarbazone], the “Wavelength at the maximum absorption” value in data set [1] (ethanol solution) came out at 332 nm. Also, in data set [1] (setting [5]), the Molar extinction coefficient was 44,000.

For the molecule `C=Cc1ccc(C=NN(CC(=O)O)C(=S)NC)cc1` [Example 4, vinylbenzaldehyde 2-carboxymethyl-4-methylthiosemicarbazone], in data set [1] (ethanol solution), the “Wavelength at the maximum absorption” value was determined as 315 nm. Besides, the Molar extinction coefficient in data set [1] (setting [5]) is 34,000.

In the case of `C=Cc1ccc(C=NN(C(=S)NC)c2ccccc2)cc1` [Example 11, p-vinylbenzaldehyde 4-methyl-2-phenylthiosemicarbazone], in data set [1] (N,N-dimethylformamide solution), the “Wavelength at the maximum absorption” value was determined as 335 nm. Besides, the Molar extinction coefficient in data set [1] (setting [6]) was 38,000.

Turning to `CC1CC(OC(=O)c2ccccc2O)CC(C)(C)C1` (stereo not drawn) [homomenthyl salicylate, reference compound], in data set [1] (setting [11]), the Molar extinction coefficient is given as 4,400 and the “Wavelength at the maximum absorption” value was 308 nm.

On to `C=Cc1ccc(C=NN(C)C(=S)NCC(=O)O)cc1` [Example 2, p-vinylbenzaldehyde 4-carboxymethyl-2-methylthiosemicarbazone], for which the “Wavelength at the maximum absorption” value in data set [1] (ethanol solution) is listed as 332 nm. Moreover, the Molar extinction coefficient in data set [1] (setting [5]) is reported as 44,000. Moreover, in data set [4] (same coated sheet), the ultraviolet rays absorbed entry is “not less than 99.9%”. The “transmittance of ultraviolet rays” value in data set [4] (triethanolamine/water solution applied at 2.0 mg/cm^2 on 0.5 mm polyethylene sheet) is given as “not more than 0.1%”.

Source of the values: EP0348513A1, “STYRENE DERIVATIVE, POLYSTYRENE DERIVATIVE COMPRISING THE SAME, PROCESS FOR PREPARING SAID POLYSTYRENE DERIVATIVE, AND ULTRAVIOLET ABSORBER COMPRISING SAID STYRENE DERIVATIVE OR POLYSTYRENE DERIVATIVE” (Earth Chemical Co., Ltd., priority 1987, dated 1989).
